One data set has as its target T1, DDR1 (Homo sapiens, UniProt Q08345).
T1 construct: purchased DiscoverX scanMAX
In words: scanMAX kinase panel. The following applies: read-out: % Control; for remaining binding at 1 µM: 1000 nM. Format: binding. The text has this: (§1) Supplemental Table S2. scanMAXSM Kinome Assay Results. Complete tabulated data of all 468 kinases from the panel, including
(§2) 403 wild-type and 65 mutant isoforms. […] Cmpd 11 and Cmpd 24

Another data set addresses T2, YANK2 (Homo sapiens, UniProt Q9NY57).
T2 construct: purchased DiscoverX (scanMAX panel)
The experiment in a line: scanMAX kinase panel. Format: binding. The settings on record: read-out: % Control; for remaining binding at 1 µM: 1000 nM.
Text: as §1, §2

Another data set deals with T3, CDK11 (Homo sapiens, UniProt Q9BWU1).
T3 construct: purchased DiscoverX scanMAX
In words: scanMAX kinase panel. Format: binding. The following applies: read-out: % Control; for remaining binding at 1 µM: 1000 nM.
Text: as §1, §2

The next data set has as its target T4, CSF1R (Homo sapiens, UniProt P07333).
T4 construct: purchased DiscoverX scanMAX
The experiment in a line: scanMAX kinase panel. Format: binding. The following applies: read-out: % Control; for remaining binding at 1 µM: 1000 nM.
Text: as §1, §2

For the next data set, the target named is T5, MERTK (Homo sapiens, UniProt Q12866).
T5 construct: purchased DiscoverX scanMAX
T5 sequence (Q12866 21-999): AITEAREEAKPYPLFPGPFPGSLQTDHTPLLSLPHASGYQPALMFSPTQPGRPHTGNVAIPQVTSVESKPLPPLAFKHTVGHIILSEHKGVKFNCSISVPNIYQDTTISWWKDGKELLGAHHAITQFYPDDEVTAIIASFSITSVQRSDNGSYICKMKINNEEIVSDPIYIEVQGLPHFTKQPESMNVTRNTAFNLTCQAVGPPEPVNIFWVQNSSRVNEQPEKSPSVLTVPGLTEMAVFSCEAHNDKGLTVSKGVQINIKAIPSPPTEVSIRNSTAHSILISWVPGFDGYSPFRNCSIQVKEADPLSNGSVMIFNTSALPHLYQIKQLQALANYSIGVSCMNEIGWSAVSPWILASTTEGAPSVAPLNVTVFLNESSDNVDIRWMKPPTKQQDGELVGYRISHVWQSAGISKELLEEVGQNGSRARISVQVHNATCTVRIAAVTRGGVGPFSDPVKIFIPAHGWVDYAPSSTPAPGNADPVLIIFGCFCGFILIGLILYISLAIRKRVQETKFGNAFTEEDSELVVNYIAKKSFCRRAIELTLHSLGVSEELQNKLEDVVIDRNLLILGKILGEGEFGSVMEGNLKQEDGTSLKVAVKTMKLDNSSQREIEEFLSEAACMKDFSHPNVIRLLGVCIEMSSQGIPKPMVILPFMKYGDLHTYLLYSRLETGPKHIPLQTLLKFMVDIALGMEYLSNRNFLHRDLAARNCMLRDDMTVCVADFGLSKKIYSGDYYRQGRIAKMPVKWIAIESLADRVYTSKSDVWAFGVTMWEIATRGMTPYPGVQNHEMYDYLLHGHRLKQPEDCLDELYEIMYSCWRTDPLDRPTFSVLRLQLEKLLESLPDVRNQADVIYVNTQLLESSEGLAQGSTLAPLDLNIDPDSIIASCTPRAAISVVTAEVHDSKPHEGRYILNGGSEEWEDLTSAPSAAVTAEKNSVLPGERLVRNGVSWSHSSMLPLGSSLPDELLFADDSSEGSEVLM
The experiment in a line: scanMAX kinase panel. Format: binding. The following applies: read-out: % Control; for remaining binding at 1 µM: 1000 nM.
Text: as §1, §2

For another data set, the target named is T6, FLT3(R834Q) (Homo sapiens, UniProt P36888, R834Q).
T6 construct: purchased DiscoverX scanMAX
T6 sequence (P36888 27-993 R834Q): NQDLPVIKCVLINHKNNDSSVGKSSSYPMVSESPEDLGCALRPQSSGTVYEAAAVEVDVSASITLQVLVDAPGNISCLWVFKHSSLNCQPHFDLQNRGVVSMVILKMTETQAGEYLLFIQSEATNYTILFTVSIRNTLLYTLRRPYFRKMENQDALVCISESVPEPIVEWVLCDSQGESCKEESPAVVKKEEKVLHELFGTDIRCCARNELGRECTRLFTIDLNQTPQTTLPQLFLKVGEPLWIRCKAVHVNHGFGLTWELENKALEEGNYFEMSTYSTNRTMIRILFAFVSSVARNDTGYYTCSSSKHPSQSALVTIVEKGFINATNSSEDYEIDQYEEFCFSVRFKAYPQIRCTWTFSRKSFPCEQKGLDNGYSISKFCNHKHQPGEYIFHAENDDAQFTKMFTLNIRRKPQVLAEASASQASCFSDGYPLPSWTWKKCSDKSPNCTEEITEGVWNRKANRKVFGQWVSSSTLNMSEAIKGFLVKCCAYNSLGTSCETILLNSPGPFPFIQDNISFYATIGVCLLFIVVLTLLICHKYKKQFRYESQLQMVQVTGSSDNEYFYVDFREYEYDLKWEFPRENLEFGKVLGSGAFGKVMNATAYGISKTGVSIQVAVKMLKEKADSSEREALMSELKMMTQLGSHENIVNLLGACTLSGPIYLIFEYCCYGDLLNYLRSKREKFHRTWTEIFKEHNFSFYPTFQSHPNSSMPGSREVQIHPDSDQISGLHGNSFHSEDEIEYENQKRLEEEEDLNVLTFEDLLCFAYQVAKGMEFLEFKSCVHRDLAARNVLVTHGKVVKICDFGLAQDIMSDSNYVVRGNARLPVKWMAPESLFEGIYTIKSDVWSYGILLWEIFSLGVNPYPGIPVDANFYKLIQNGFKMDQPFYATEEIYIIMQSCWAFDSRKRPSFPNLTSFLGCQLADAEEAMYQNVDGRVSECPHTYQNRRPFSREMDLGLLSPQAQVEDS
The experiment in a line: scanMAX kinase panel. The following applies: read-out: % Control; for remaining binding at 1 µM: 1000 nM. Format: binding.
Text: as §1, §2

In a further data set the test system is 786-O RCC xenografts. The experiment in a line: 786-O ccRCC tumor xenograft study. Format: in vivo. The settings on record: for tolerability by body weight measurement / tumor growth inhibition: 30 mg/kg BID oral, 29 days. On the procedure: In vivo studies of the effect of pyrrolopyrimidines on 786-O xenograft inhibition follow a method published elsewhere. Female BALB/c nude mice were inoculated subcutaneously with 786-O tumor cells (5 × 10^6) in 0.1 mL of PBS. Animals were randomized when tumors reached 100–200 mm^3 into treatment groups. […] Tumor volumes were measured by caliper and the volume was expressed in mm^3 using the formula: V = (L × W × W)/2, where V, L, and W represent tumor volume, length, and width, respectively. All studies were conducted following an IACUC-approved protocol (AN-1903-05-1798). Experimental data management and reporting were in accordance with applicable Crown Bioscience’s Guidelines and Standard Operating Procedures.

T4 sequence (P07333 20-972): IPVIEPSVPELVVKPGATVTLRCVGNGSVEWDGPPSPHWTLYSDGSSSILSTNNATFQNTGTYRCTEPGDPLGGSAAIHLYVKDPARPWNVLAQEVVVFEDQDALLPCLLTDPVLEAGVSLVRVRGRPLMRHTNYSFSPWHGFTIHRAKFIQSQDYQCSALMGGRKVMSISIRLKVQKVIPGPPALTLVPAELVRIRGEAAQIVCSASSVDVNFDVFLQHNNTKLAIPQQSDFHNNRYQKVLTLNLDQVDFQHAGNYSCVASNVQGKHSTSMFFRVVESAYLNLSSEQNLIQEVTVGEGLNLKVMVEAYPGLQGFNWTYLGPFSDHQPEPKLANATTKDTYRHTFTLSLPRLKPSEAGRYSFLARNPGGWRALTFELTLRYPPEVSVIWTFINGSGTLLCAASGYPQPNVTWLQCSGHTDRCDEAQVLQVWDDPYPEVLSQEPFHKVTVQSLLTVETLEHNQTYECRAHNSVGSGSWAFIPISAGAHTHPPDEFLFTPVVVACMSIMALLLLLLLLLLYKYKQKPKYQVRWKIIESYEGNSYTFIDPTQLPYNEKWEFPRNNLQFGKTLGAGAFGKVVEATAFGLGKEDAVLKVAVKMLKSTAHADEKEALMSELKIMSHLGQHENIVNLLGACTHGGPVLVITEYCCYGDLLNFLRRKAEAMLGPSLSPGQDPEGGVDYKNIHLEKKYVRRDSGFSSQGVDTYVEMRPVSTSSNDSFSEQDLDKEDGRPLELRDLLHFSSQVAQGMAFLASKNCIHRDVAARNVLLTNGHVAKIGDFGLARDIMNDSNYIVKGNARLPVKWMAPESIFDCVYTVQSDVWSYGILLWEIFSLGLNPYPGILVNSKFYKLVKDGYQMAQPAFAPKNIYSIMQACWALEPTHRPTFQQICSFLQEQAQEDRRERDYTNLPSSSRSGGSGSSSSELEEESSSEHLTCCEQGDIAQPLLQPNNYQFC
T2 sequence (Q9NY57 whole entry): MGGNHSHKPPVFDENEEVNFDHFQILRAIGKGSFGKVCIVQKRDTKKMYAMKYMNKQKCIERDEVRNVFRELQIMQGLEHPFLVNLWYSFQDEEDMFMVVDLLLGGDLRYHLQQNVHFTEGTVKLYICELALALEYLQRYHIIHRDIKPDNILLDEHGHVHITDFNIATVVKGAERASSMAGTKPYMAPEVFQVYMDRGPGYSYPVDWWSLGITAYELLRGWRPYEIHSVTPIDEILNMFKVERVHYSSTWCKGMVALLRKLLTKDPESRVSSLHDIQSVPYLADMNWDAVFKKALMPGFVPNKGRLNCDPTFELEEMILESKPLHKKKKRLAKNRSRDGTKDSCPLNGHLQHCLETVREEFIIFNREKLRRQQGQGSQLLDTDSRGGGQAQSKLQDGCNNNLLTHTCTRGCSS
T1 sequence (Q08345 19-913): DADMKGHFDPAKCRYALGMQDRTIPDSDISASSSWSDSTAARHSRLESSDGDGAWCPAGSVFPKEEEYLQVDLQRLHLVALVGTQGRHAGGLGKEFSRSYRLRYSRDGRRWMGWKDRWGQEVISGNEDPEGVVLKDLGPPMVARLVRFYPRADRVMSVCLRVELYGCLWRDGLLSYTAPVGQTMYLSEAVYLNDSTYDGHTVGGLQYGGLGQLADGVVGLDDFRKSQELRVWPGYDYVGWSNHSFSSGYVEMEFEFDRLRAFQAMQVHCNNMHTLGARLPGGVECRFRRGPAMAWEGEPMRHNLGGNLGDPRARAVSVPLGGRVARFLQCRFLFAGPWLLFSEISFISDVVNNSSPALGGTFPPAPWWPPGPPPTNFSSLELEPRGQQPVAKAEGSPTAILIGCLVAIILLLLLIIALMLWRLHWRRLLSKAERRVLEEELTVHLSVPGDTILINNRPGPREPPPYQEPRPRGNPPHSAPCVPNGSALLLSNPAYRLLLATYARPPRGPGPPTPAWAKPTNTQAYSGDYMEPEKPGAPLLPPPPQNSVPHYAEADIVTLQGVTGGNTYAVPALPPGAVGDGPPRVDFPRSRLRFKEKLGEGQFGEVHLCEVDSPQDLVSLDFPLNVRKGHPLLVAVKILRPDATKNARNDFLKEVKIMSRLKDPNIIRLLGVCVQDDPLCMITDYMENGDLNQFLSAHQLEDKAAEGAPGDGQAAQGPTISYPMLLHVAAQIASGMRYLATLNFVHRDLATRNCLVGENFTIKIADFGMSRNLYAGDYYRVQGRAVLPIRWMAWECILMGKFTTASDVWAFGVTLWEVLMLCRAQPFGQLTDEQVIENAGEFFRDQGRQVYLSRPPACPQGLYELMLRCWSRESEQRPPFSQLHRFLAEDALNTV
T3 sequence (Q9BWU1 whole entry): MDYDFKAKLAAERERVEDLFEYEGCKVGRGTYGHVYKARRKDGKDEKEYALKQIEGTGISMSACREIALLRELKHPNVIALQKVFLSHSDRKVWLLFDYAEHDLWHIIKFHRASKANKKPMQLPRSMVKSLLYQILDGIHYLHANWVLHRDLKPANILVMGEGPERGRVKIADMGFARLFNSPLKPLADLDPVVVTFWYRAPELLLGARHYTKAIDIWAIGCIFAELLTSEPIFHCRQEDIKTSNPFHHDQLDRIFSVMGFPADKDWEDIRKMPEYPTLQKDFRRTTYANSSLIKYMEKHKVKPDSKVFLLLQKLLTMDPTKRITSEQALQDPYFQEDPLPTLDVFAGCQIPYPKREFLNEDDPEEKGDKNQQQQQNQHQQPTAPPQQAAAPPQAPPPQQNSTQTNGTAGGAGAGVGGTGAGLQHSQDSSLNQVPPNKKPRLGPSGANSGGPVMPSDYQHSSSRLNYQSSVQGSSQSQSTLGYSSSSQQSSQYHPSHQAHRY

`Cc1cc(NC(=O)[C@H](O)c2cccc(F)c2)ccc1-c1cn(C)c2ncnc(N)c12` [Compound 11, (R)-N-(4-(4-amino-7-methyl-7H-pyrrolo[2,3-d]pyrimidin-5-yl)-3-methylphenyl)-2-(3-fluorophenyl)-2-hydroxy acetamide]: the remaining binding at 1 µM on DDR1 amounted to 72%; at YANK2, 11%; at CDK11 it was 1%; at CSF1R, 45%; on MERTK, 65%; at FLT3(R834Q) it was 59%.
Consider `Cc1nc(N)c2c(-c3ccc(NC(=O)[C@H](O)c4cccc(F)c4)c(F)c3F)cn(C)c2n1` [Compound 70, (R)-N-(4-(4-amino-2,7-dimethyl-7H-pyrrolo[2,3-d]pyrimidin-5-yl)-2,3-difluorophenyl)-2-(3-fluorophenyl)-2-hydroxyacetamide], for which, in the data set with 786-O RCC xenografts, the “tolerability by body weight measurement” value is listed as “well tolerated” and the tumor growth inhibition result is reported as “significant tumor growth inhibition”.
Regarding `Cc1nc(N)c2c(-c3ccc(NC(=O)[C@H](O)c4cccc(C(F)(F)F)c4)cc3C)cn(C)c2n1` [Compound 26], the “tolerability by body weight measurement” value in the data set on 786-O RCC xenografts is given as “well tolerated”. Moreover, the tumor growth inhibition result in the data set on 786-O RCC xenografts is recorded as “significant tumor growth inhibition”. Also, the “effect on body weight” value in the data set on 786-O RCC xenografts (10 or 30 mg/kg, 28-day study period) is reported as “No significant effects on body weght”. Besides, the tumor volume entry in the data set with 786-O RCC xenografts (10 or 30 mg/kg, 28 days) was “significantly decreased tumor volume”. In addition, the remaining binding at 0.1 µM on DDR1 (100 nM) amounted to 100%; on YANK2 (100 nM) it was 92%; at CDK11 (100 nM), 89%; at CSF1R (100 nM), 99%; at MERTK (100 nM), 94%; on FLT3(R834Q) (100 nM), 84%. For the same compound, the remaining binding at 1 µM on DDR1 is 29%; on YANK2, 63%; at CDK11, 8.2%; at CSF1R it was 15%; on MERTK, 29%; on FLT3(R834Q), 7.5%.
Turning to `Cc1nc(N)c2c(-c3ccc(NC(=O)[C@H](O)c4cccc(F)c4)cc3C)cn(C)c2n1` [Compound 24], the “tolerability by body weight measurement” value in the data set with 786-O RCC xenografts is given as “well tolerated”. The tumor growth inhibition result in the data set with 786-O RCC xenografts is given as “significant tumor growth inhibition”. Also, the remaining binding at 1 µM on DDR1 came out at 100%; on YANK2, 100%; on CDK11 it was 89%; at CSF1R it was 94%; on MERTK it was 100%; on FLT3(R834Q) it was 98%.

The record behind these values is publication PMC9611727, “Optimization of a Novel Mandelamide-Derived Pyrrolopyrimidine Series of PERK Inhibitors” (Pharmaceutics, 2022).
